Laboratory results published in patent publication US20030170643A1, “Regulation of apoB treatment and drug screening for cardiovascular and metabolic disorders or syndromes” (priority 1999, published 2003).

Molecular target: T1, purified bovine MTP (Bos taurus, UniProt P55156)
T1 sequence (P55156 12-887): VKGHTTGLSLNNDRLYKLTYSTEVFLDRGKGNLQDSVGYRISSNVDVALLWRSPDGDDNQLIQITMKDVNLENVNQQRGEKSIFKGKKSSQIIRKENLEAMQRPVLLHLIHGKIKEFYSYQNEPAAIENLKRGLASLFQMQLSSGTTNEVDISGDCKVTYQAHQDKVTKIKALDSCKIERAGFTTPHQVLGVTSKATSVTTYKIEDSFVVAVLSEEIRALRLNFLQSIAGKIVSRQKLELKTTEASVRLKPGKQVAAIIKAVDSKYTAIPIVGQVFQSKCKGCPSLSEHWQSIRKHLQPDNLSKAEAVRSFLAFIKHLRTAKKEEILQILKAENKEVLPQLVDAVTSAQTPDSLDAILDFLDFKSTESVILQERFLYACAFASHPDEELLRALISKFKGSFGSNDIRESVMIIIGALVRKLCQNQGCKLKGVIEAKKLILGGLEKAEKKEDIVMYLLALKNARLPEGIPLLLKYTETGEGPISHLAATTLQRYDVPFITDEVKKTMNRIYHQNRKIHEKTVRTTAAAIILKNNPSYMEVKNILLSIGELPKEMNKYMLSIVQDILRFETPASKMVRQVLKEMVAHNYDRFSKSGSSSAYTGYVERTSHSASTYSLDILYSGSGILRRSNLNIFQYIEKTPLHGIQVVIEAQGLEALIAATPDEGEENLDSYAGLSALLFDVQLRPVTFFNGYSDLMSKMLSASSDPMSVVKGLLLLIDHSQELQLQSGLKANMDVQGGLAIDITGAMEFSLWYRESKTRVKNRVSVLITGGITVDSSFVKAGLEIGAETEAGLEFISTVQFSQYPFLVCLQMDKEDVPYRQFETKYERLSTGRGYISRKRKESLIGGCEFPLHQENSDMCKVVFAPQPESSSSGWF
T1 sequence (P05307 21-510 partner): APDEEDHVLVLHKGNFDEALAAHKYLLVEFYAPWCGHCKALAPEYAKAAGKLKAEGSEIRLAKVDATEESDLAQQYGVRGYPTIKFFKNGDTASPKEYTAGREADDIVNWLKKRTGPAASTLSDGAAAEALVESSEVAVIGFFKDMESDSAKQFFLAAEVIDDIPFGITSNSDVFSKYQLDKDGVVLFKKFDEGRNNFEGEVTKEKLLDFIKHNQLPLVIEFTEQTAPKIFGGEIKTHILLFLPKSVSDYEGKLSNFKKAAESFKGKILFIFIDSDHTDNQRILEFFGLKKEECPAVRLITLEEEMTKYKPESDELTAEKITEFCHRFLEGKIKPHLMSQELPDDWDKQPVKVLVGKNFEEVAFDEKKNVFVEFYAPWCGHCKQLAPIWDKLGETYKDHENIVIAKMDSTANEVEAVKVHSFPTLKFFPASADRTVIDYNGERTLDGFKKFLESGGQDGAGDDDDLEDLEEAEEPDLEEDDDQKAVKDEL
Test: MTP-mediated transfer of lipid classes biosynthetically labeled with OA or EPA (donor/acceptor vesicles)
Format: biochemical
Description: FIG. 5 illustrates that Ω-3 lipids are good substrates for MTP-mediated lipid transfer. HepG2 cells were incubated for 14 hr at 37° C. with ^14C-labeled oleate (OA) or ^14C-labeled EPA complexed to BSA (final concentration of either fatty acid was 0.8 mM). Total lipids were extracted from the washed cell monolayers and separated by preparative TLC into triglyceride (TG), cholesteryl ester (CE), phosphatidylcholine (PC), and phosphatidylethanolamine (PE). The isolated lipid classes were then incorporated (to a content of 0.5 mol %) into vesicles that were used as donors in lipid transfer assays with recombinant MTP. Results were normalized to the transfer of [^14C]triolein and are shown as mean values ±SE (n=4).
Three methods were used to assess possible effects of Ω-3 fatty acids on cellular MTP function. First, rat primary hepatocytes were incubated with BSA, OA, or EPA, and then MTP activity in cell lysates was measured using a fluorescent assay (Roar Biomedical, New York, NY). Second, to determine if lipid classes synthesized in the presence of OA or Ω-3 fatty acid are equivalent substrates for MTP, primary rat hepatocytes or HepG2 cells were incubated with tritiated OA or EPA, total cellular lipids were extracted into isopropanol, and biosynthetically labeled cholesteryl ester, triglyceride, and phospholipids were separated by preparative thin layer chromatography. Each of these isolated lipids was incorporated into vesicles that were used as donors in a transfer reaction with acceptor vesicles and […] of purified bovine MTP, as described in Jamil, H., Dickson, J. K., Jr., Chu, C. H., Lago, M. W., Rinehart, J. K., Biller, S. A., Gregg, R. E., and Wetterau, J. R. (1995) J Biol Chem 270(12), 6549-54. As an internal control for lipid transfer, each donor vesicle also contained [^14C]triolein. Third, to determine if Ω-3 lipids inhibit MTP-mediated transfer of non-Ω-3 lipids, artificial donor vesicles were prepared containing either labeled triolein or labeled POPC. The majority of lipid mass in these vesicles was unlabeled phosphatidylcholine that contained either 100% oleate esterified at the sn-2 position (control) or a mixture of 70% oleate and 30% DHA or 30% EPA. Transfer of the labeled lipids to acceptor vesicles in the presence of 50 μg of purified bovine MTP was measured as described in Jamil, H. et al (1995) J Biol Chem 270(12), 6549-54.
An intracellular abundance of relatively poor lipid substrates, produced during incubations of hepatocytes with EPA or DHA, could be functionally equivalent to MTP inhibition. Thus, rat primary hepatocytes and HepG2 cells were incubated with radiolabeled OA or EPA to allow incorporation of these fatty acids into lipid esters. […]

## CCCCCCCC/C=C\CCCCCCCC(=O)O [OA, oleic acid]
Lipids from fatty acid-treated HepG2 cells, P=0.07
  MTP-mediated transfer of labeled cholesteryl esters, % of [14C]triolein transfer: 20%+4%
Lipids from fatty acid-treated HepG2 cells, P=0.6
  MTP-mediated transfer of labeled phosphatidylethanolamines, % of [14C]triolein transfer: 1.1%+0.1%
Lipids from fatty acid-treated HepG2 cells, P=0.7
  MTP-mediated transfer of labeled phosphatidylcholines, % of [14C]triolein transfer: 2.3%+1%
Lipids harvested from fatty acid-treated HepG2 cells, P=0.3
  MTP-mediated transfer rate of labeled triglycerides, % of [14C]triolein transfer: 60%±8%
